What was measured:
Test in all cases: Kinase Hotspot radiolabel assay
Format in all cases: biochemical
Conditions in all cases: read-out: % Residual Activity
ACK1 = target: T1, ACK1 (Homo sapiens, UniProt Q07912)
T1 construct: purchased Reaction Biology Corporation (Kinase HotSpot)
How it was run: (§1)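 Data come from a 369-member kinase selectivity screen run as a Hotspot radiolabel assay. Compound concentration was 1 µM, and Ki was determined wherever inhibition topped 90%.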

AKT1 = target: T2, AKT1 (Homo sapiens, UniProt P31749)
T2 construct: purchased Reaction Biology Corporation (Kinase HotSpot)
How it was run: as §1

AXL = target: T3, AXL (Homo sapiens, UniProt P30530)
T3 construct: purchased Reaction Biology Corporation (Kinase HotSpot)
How it was run: as §1

CAMK1b = target: T4, CAMK1b (Homo sapiens, UniProt Q6P2M8)
T4 construct: purchased Reaction Biology Corporation (Kinase HotSpot)
How it was run: as §1

CAMK2d = target: T5, CAMK2d (Homo sapiens, UniProt Q13557)
T5 construct: purchased Reaction Biology Corporation (Kinase HotSpot)
How it was run: as §1

CAMK2g = target: T6, CAMK2g (Homo sapiens, UniProt Q13555)
T6 construct: purchased Reaction Biology Corporation (Kinase HotSpot)
How it was run: as §1

CAMKK2 = target: T7, CAMKK2 (Homo sapiens, UniProt Q96RR4)
T7 construct: purchased Reaction Biology Corporation (Kinase HotSpot)
How it was run: as §1

CDK3/cyclin E = target: T8, CDK3/cyclin E (Homo sapiens, UniProt Q00526)
T8 construct: purchased Reaction Biology Corporation (Kinase HotSpot)
How it was run: as §1

CDK6/cyclin D1 = target: T9, CDK6/cyclin D1 (Homo sapiens, UniProt Q00534)
T9 construct: purchased Reaction Biology Corporation (Kinase HotSpot)
How it was run: as §1

CK1a1 = target: T10, CK1a1 (Homo sapiens, UniProt P48729)
T10 construct: purchased Reaction Biology Corporation (Kinase HotSpot)
How it was run: as §1

CK1epsilon = target: T11, CK1epsilon (Homo sapiens, UniProt P49674)
T11 construct: purchased Reaction Biology Corporation (Kinase HotSpot)
How it was run: as §1

EPHA1 = target: T12, EPHA1 (Homo sapiens, UniProt P21709)
T12 construct: purchased Reaction Biology Corporation (Kinase HotSpot)
How it was run: as §1

EPHB2 = target: T13, EPHB2 (Homo sapiens, UniProt P29323)
T13 construct: purchased Reaction Biology Corporation (Kinase HotSpot)
How it was run: as §1

HCK = target: T14, HCK (Homo sapiens, UniProt P08631)
T14 construct: purchased Reaction Biology Corporation (Kinase HotSpot)
How it was run: as §1

HIPK2 = target: T15, HIPK2 (Homo sapiens, UniProt Q9H2X6)
T15 construct: purchased Reaction Biology Corporation (Kinase HotSpot)
How it was run: as §1

HPK1/MAP4K1 = target: T16, HPK1/MAP4K1 (Homo sapiens, UniProt Q92918)
T16 construct: purchased Reaction Biology Corporation (Kinase HotSpot)
How it was run: as §1

JAK1 = target: T17, JAK1 (Homo sapiens, UniProt P23458)
T17 construct: purchased Reaction Biology Corporation (Kinase HotSpot)
How it was run: as §1

LYN = target: T18, LYN (Homo sapiens, UniProt P07948)
T18 construct: purchased Reaction Biology Corporation (Kinase HotSpot)
How it was run: as §1

MARK4 = target: T19, MARK4 (Homo sapiens, UniProt Q96L34)
T19 construct: purchased Reaction Biology Corporation (Kinase HotSpot)
How it was run: as §1

MLCK/MYLK = target: T20, MLCK/MYLK (Homo sapiens, UniProt Q15746)
T20 construct: purchased Reaction Biology Corporation (Kinase HotSpot)
How it was run: as §1

NEK1 = target: T21, NEK1 (Homo sapiens, UniProt Q96PY6)
T21 construct: purchased Reaction Biology Corporation (Kinase HotSpot)
How it was run: as §1

P38b/MAPK11 = target: T22, P38b/MAPK11 (Homo sapiens, UniProt Q15759)
T22 construct: purchased Reaction Biology Corporation (Kinase HotSpot)
How it was run: as §1

PIM1 = target: T23, PIM1 (Homo sapiens, UniProt P11309)
T23 construct: purchased Reaction Biology Corporation (Kinase HotSpot)
How it was run: as §1

PKA = target: T24, PKA (Homo sapiens, UniProt P17612)
T24 construct: purchased Reaction Biology Corporation (Kinase HotSpot)
How it was run: as §1

PKCeta = target: T25, PKCeta (Homo sapiens, UniProt P24723)
T25 construct: purchased Reaction Biology Corporation (Kinase HotSpot)
How it was run: as §1

PKCiota = target: T26, PKCiota (Homo sapiens, UniProt P41743)
T26 construct: purchased Reaction Biology Corporation (Kinase HotSpot)
How it was run: as §1

PKCtheta = target: T27, PKCtheta (Homo sapiens, UniProt Q04759)
T27 construct: purchased Reaction Biology Corporation (Kinase HotSpot)
How it was run: as §1

PKCzeta = target: T28, PKCzeta (Homo sapiens, UniProt Q05513)
T28 construct: purchased Reaction Biology Corporation (Kinase HotSpot)
How it was run: as §1

ROS/ROS1 = target: T29, ROS/ROS1 (Homo sapiens, UniProt P08922)
T29 construct: purchased Reaction Biology Corporation (Kinase HotSpot)
How it was run: as §1

TTBK1 = target: T30, TTBK1 (Homo sapiens, UniProt Q5TCY1)
T30 construct: purchased Reaction Biology Corporation (Kinase HotSpot)
How it was run: as §1

T13 sequence (P29323 19-1055): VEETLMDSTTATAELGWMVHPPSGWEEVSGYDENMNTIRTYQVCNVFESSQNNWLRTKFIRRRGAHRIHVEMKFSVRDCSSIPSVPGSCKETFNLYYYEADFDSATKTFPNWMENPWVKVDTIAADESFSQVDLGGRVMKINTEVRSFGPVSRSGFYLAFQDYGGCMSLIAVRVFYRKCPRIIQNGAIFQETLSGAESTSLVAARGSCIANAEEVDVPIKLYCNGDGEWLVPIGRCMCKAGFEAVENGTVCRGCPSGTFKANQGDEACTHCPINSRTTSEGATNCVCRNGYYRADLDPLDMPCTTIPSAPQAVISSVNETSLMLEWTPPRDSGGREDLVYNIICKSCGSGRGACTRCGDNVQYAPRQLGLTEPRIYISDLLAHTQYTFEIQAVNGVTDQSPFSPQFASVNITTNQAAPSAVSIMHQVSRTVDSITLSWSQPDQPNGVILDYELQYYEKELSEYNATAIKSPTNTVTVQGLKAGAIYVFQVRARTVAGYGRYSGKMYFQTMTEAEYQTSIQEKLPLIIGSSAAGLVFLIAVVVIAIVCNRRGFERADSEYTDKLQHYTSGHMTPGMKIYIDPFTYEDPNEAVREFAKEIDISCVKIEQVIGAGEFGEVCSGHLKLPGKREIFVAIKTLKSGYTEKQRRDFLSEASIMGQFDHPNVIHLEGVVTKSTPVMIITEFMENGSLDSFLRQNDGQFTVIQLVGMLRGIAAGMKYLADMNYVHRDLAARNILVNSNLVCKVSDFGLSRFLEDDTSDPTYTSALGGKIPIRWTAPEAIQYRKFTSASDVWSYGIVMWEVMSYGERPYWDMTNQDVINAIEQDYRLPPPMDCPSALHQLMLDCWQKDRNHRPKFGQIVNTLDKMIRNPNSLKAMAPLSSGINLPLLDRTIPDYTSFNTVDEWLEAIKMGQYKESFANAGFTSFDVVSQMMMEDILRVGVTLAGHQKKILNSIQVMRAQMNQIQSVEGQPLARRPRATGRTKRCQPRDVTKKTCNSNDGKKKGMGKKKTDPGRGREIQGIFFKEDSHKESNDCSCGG
T20 sequence (Q15746 whole entry): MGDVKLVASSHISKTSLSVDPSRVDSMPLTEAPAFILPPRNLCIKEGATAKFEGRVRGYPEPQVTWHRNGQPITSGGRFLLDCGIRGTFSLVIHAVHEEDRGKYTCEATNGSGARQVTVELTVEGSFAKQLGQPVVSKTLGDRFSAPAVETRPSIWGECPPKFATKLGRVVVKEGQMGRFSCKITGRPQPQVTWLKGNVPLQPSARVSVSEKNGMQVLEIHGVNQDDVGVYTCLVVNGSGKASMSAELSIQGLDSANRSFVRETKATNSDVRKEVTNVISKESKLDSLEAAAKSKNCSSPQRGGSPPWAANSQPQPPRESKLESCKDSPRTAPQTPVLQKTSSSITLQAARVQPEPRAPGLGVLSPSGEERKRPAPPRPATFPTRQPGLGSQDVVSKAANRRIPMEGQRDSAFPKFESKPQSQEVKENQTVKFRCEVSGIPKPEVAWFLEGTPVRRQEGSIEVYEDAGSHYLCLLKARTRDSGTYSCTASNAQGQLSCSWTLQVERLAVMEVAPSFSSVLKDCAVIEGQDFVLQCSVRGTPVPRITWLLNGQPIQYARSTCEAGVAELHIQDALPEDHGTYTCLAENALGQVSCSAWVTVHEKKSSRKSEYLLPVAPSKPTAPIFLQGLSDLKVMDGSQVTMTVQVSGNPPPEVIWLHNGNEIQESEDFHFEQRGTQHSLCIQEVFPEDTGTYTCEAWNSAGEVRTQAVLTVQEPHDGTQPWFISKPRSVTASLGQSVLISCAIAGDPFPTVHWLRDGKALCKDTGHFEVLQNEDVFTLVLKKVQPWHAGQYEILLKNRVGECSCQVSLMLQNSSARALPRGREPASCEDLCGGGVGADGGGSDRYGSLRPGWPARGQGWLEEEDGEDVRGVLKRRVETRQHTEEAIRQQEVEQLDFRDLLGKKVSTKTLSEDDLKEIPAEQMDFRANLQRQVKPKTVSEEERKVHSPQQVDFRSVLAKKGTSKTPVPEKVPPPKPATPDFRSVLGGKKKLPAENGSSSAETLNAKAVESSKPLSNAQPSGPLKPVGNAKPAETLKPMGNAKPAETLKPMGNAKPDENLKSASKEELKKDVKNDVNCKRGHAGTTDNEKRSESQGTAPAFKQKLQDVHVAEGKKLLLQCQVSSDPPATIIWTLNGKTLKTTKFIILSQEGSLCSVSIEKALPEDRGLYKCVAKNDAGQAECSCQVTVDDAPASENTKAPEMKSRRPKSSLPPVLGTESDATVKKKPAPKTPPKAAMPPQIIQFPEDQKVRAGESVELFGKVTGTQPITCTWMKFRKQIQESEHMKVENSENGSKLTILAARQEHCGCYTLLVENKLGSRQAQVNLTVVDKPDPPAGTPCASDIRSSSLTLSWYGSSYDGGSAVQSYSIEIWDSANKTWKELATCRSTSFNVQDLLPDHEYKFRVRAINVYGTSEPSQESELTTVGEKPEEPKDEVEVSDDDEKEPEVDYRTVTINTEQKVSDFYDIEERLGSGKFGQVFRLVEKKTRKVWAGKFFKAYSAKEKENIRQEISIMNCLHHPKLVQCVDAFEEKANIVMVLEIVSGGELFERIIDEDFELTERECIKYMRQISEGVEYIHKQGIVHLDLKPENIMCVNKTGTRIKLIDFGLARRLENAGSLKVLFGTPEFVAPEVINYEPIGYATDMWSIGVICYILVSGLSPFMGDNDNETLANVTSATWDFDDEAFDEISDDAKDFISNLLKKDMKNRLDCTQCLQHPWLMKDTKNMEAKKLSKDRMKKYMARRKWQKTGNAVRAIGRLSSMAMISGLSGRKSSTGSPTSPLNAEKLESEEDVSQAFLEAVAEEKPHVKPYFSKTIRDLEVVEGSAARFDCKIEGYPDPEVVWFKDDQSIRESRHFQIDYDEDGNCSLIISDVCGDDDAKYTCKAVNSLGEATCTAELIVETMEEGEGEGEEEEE
T28 sequence (Q05513 whole entry): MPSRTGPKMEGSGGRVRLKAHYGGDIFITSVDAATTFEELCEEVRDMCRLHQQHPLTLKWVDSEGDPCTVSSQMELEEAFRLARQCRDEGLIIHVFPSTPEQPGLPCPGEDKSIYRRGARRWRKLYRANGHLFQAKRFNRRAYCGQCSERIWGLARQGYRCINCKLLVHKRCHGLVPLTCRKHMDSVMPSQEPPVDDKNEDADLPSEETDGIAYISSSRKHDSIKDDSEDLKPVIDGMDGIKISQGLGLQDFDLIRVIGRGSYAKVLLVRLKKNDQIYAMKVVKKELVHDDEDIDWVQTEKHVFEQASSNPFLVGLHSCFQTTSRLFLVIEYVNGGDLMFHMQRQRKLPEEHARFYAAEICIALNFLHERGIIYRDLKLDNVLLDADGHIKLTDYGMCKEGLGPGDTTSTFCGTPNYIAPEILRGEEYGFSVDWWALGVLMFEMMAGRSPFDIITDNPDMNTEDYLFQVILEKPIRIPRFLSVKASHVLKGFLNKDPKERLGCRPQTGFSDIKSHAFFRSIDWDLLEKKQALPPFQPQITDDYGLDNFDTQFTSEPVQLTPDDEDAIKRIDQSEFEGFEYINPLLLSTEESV
T18 sequence (P07948 whole entry): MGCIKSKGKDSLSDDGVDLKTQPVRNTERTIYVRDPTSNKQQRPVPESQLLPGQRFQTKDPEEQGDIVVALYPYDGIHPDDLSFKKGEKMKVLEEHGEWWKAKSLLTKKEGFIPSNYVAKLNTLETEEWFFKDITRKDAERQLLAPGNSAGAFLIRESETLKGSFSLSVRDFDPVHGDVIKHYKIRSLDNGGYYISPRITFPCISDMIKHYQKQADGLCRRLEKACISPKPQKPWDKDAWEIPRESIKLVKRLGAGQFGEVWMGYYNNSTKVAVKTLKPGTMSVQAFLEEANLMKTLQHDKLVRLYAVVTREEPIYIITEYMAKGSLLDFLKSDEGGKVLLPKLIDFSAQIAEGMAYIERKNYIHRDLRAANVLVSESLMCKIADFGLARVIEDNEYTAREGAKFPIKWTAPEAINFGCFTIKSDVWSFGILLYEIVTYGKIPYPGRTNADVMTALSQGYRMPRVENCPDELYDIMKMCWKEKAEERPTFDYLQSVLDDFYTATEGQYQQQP
T3 sequence (P30530 26-894): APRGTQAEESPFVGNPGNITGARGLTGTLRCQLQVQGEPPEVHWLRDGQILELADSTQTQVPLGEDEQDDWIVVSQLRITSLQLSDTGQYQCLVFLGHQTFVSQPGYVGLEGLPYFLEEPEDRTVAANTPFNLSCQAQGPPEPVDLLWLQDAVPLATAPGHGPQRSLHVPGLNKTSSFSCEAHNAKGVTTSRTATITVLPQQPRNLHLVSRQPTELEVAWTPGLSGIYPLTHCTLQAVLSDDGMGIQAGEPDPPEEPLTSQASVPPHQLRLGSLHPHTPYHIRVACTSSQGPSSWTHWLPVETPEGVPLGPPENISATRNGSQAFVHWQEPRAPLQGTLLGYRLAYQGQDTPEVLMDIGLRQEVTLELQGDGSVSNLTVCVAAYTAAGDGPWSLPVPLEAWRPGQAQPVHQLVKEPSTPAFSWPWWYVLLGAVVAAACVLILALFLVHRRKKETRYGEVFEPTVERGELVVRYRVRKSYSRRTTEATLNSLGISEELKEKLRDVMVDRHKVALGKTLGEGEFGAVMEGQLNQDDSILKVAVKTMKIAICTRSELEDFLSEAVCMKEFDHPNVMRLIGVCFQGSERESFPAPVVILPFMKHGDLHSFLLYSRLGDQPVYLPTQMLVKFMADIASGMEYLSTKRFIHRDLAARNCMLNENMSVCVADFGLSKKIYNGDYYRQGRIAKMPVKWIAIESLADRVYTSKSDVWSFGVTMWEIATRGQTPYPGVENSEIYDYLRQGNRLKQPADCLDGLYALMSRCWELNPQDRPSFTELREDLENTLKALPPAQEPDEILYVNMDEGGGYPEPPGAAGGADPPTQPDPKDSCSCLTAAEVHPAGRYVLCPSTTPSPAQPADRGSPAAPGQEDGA

## Cc1cnc(N[C@H]2CC[C@H](N)CC2)nc1-c1cnc2ccc(-c3ccccc3)cn12 [CDDD11-8]
ACK1
  remaining activity at 1 µM: 64.5%
AKT1
  remaining activity at 1 µM: 95%
AXL
  remaining activity at 1 µM: 44.4%
CAMK1b
  remaining activity at 1 µM: 96.1%
CAMK2d
  remaining activity at 1 µM: 17.3%
CAMK2g
  remaining activity at 1 µM: 96.8%
CAMKK2
  remaining activity at 1 µM: 47.7%
CDK3/cyclin E
  remaining activity at 1 µM: 77.9%
CDK6/cyclin D1
  remaining activity at 1 µM: 80.7%
CK1a1
  remaining activity at 1 µM: 102%
CK1epsilon
  remaining activity at 1 µM: 37.1%
EPHA1
  remaining activity at 1 µM: 93.1%
EPHB2
  remaining activity at 1 µM: 80.2%
HCK
  remaining activity at 1 µM: 62.7%
HIPK2
  remaining activity at 1 µM: 104%
HPK1/MAP4K1
  remaining activity at 1 µM: 35.4%
JAK1
  remaining activity at 1 µM: 93.3%
LYN
  remaining activity at 1 µM: 65.5%
MARK4
  remaining activity at 1 µM: 22.4%
MLCK/MYLK
  remaining activity at 1 µM: 57.2%
NEK1
  remaining activity at 1 µM: 40.8%
P38b/MAPK11
  remaining activity at 1 µM: 98.4%
PIM1
  remaining activity at 1 µM: 65%
PKA
  remaining activity at 1 µM: 95.3%
PKCeta
  remaining activity at 1 µM: 47.3%
PKCiota
  remaining activity at 1 µM: 88.8%
PKCtheta
  remaining activity at 1 µM: 46.2%
PKCzeta
  remaining activity at 1 µM: 89.2%
ROS/ROS1
  remaining activity at 1 µM: 41.5%
TTBK1
  remaining activity at 1 µM: 89.5%

Reference: PMC8909834, “An Orally Bioavailable and Highly Efficacious Inhibitor of CDK9/FLT3 for the Treatment of Acute Myeloid Leukemia” (Cancers, 2022)
